Experiments:
Assay in all cases: relative viability (nuclei count vs DMSO), 5 days (fraction); higher = more cells survive
201T = test system: 201T
Summary of the method: (§1)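 Five library-drug doses in √10 steps were combined with a fixed anchor-drug dose, or a single drug was given alone, by pin tool to lung cancer cell lines in 1536-well plates the day after seeding. Nuclei were stained and counted after 5 days. Relative viability is the nuclei count in treated wells over that in vehicle wells, taken as the median of duplicate plates.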

BEN = test system: BEN
Summary of the method: as §1

CAL-12T = test system: CAL-12T
Summary of the method: as §1

HCC-78 = test system: HCC-78
Summary of the method: as §1

HOP-62 = test system: HOP-62
Summary of the method: as §1

LCLC-97TM1 = test system: LCLC-97TM1
Summary of the method: as §1

LOU-NH91 = test system: LOU-NH91
Summary of the method: as §1

NCI-H1355 = test system: NCI-H1355
Summary of the method: as §1

NCI-H1395 = test system: NCI-H1395
Summary of the method: as §1

NCI-H1563 = test system: NCI-H1563
Summary of the method: as §1

NCI-H1651 = test system: NCI-H1651
Summary of the method: as §1

NCI-H1793 = test system: NCI-H1793
Summary of the method: as §1

NCI-H1915 = test system: NCI-H1915
Summary of the method: as §1

NCI-H1944 = test system: NCI-H1944
Summary of the method: as §1

NCI-H2126 = test system: NCI-H2126
Summary of the method: as §1

NCI-H2347 = test system: NCI-H2347
Summary of the method: as §1

NCI-H3122 = test system: NCI-H3122
Summary of the method: as §1

NCI-H322M = test system: NCI-H322M
Summary of the method: as §1

NCI-H441 = test system: NCI-H441
Summary of the method: as §1

NCI-H650 = test system: NCI-H650
Summary of the method: as §1

NCI-H838 = test system: NCI-H838
Summary of the method: as §1

SK-LU-1 = test system: SK-LU-1
Summary of the method: as §1

SW 1573 = test system: SW 1573
Summary of the method: as §1

Structure (SMILES): Cc1cn(-c2cc(NC(=O)c3ccc(C)c(Nc4nccc(-c5cccnc5)n4)c3)cc(C(F)(F)F)c2)cn1 [Nilotinib] + COc1cccc2cc(-c3nc([C@H]4CC[C@H](C(=O)O)CC4)n4ncnc(N)c34)[nH]c12 [OSI-027] (partner 0.5 µM)
- relative viability (201T; first compound 0.001 µM): 0.734
- relative viability (201T; first compound 0.003162 µM): 0.666
- relative viability (201T; first compound 0.01 µM): 0.77
- relative viability (201T; first compound 0.03162 µM): 0.317
- relative viability (201T; first compound 0.1 µM): 0.667
- relative viability (BEN; first compound 0.001 µM): 0.295
- relative viability (BEN; first compound 0.003162 µM): 0.285
- relative viability (BEN; first compound 0.01 µM): 0.348
- relative viability (BEN; first compound 0.03162 µM): 0.283
- relative viability (BEN; first compound 0.1 µM): 0.277
- relative viability (CAL-12T; first compound 0.001 µM): 0.612
- relative viability (CAL-12T; first compound 0.003162 µM): 0.413
- relative viability (CAL-12T; first compound 0.01 µM): 0.426
- relative viability (CAL-12T; first compound 0.03162 µM): 0.427
- relative viability (CAL-12T; first compound 0.1 µM): 0.527
- relative viability (HCC-78; first compound 0.001 µM): 0.444
- relative viability (HCC-78; first compound 0.003162 µM): 0.368
- relative viability (HCC-78; first compound 0.01 µM): 0.352
- relative viability (HCC-78; first compound 0.03162 µM): 0.373
- relative viability (HCC-78; first compound 0.1 µM): 0.403
- relative viability (HOP-62; first compound 0.001 µM): 0.699
- relative viability (HOP-62; first compound 0.003162 µM): 0.831
- relative viability (HOP-62; first compound 0.01 µM): 0.909
- relative viability (HOP-62; first compound 0.03162 µM): 0.581
- relative viability (HOP-62; first compound 0.1 µM): 0.559
- relative viability (LCLC-97TM1; first compound 0.001 µM): 0.552
- relative viability (LCLC-97TM1; first compound 0.003162 µM): 0.559
- relative viability (LCLC-97TM1; first compound 0.01 µM): 0.479
- relative viability (LCLC-97TM1; first compound 0.03162 µM): 0.432
- relative viability (LCLC-97TM1; first compound 0.1 µM): 0.467
- relative viability (LOU-NH91; first compound 0.001 µM): 0.687
- relative viability (LOU-NH91; first compound 0.003162 µM): 0.728
- relative viability (LOU-NH91; first compound 0.01 µM): 0.736
- relative viability (LOU-NH91; first compound 0.03162 µM): 0.67
- relative viability (LOU-NH91; first compound 0.1 µM): 0.727
- relative viability (NCI-H1355; first compound 0.001 µM): 0.384
- relative viability (NCI-H1355; first compound 0.003162 µM): 0.388
- relative viability (NCI-H1355; first compound 0.01 µM): 0.324
- relative viability (NCI-H1355; first compound 0.03162 µM): 0.314
- relative viability (NCI-H1355; first compound 0.1 µM): 0.329
- relative viability (NCI-H1395; first compound 0.001 µM): 0.673
- relative viability (NCI-H1395; first compound 0.003162 µM): 0.467
- relative viability (NCI-H1395; first compound 0.01 µM): 0.579
- relative viability (NCI-H1395; first compound 0.03162 µM): 0.612
- relative viability (NCI-H1395; first compound 0.1 µM): 0.416
- relative viability (NCI-H1563; first compound 0.001 µM): 0.72
- relative viability (NCI-H1563; first compound 0.003162 µM): 0.731
- relative viability (NCI-H1563; first compound 0.01 µM): 0.681
- relative viability (NCI-H1563; first compound 0.03162 µM): 0.74
- relative viability (NCI-H1563; first compound 0.1 µM): 0.666
- relative viability (NCI-H1651; first compound 0.001 µM): 0.638
- relative viability (NCI-H1651; first compound 0.003162 µM): 0.727
- relative viability (NCI-H1651; first compound 0.01 µM): 0.842
- relative viability (NCI-H1651; first compound 0.03162 µM): 0.508
- relative viability (NCI-H1651; first compound 0.1 µM): 0.403
- relative viability (NCI-H1793; first compound 0.001 µM): 0.269
- relative viability (NCI-H1793; first compound 0.003162 µM): 0.261
- relative viability (NCI-H1793; first compound 0.01 µM): 0.223
- relative viability (NCI-H1793; first compound 0.03162 µM): 0.188
- relative viability (NCI-H1793; first compound 0.1 µM): 0.173
- relative viability (NCI-H1915; first compound 0.001 µM): 0.552
- relative viability (NCI-H1915; first compound 0.003162 µM): 0.659
- relative viability (NCI-H1915; first compound 0.01 µM): 0.61
- relative viability (NCI-H1915; first compound 0.03162 µM): 0.567
- relative viability (NCI-H1915; first compound 0.1 µM): 0.338
- relative viability (NCI-H1944; first compound 0.001 µM): 0.418
- relative viability (NCI-H1944; first compound 0.003162 µM): 0.407
- relative viability (NCI-H1944; first compound 0.01 µM): 0.367
- relative viability (NCI-H1944; first compound 0.03162 µM): 0.324
- relative viability (NCI-H2126; first compound 0.001 µM): 0.673
- relative viability (NCI-H2126; first compound 0.003162 µM): 0.706
- relative viability (NCI-H2126; first compound 0.01 µM): 0.572
- relative viability (NCI-H2126; first compound 0.03162 µM): 0.582
- relative viability (NCI-H2126; first compound 0.1 µM): 0.544
- relative viability (NCI-H2347; first compound 0.001 µM): 0.512
- relative viability (NCI-H2347; first compound 0.003162 µM): 0.429
- relative viability (NCI-H2347; first compound 0.01 µM): 0.388
- relative viability (NCI-H2347; first compound 0.03162 µM): 0.364
- relative viability (NCI-H2347; first compound 0.1 µM): 0.419
- relative viability (NCI-H3122; first compound 0.001 µM): 0.961
- relative viability (NCI-H3122; first compound 0.003162 µM): 1.33
- relative viability (NCI-H3122; first compound 0.01 µM): 1.24
- relative viability (NCI-H3122; first compound 0.03162 µM): 0.66
- relative viability (NCI-H3122; first compound 0.1 µM): 0.467
- relative viability (NCI-H322M; first compound 0.001 µM): 0.516
- relative viability (NCI-H322M; first compound 0.003162 µM): 0.436
- relative viability (NCI-H322M; first compound 0.01 µM): 0.422
- relative viability (NCI-H322M; first compound 0.03162 µM): 0.384
- relative viability (NCI-H322M; first compound 0.1 µM): 0.481
- relative viability (NCI-H441; first compound 0.001 µM): 0.524
- relative viability (NCI-H441; first compound 0.003162 µM): 0.743
- relative viability (NCI-H441; first compound 0.01 µM): 0.52
- relative viability (NCI-H441; first compound 0.03162 µM): 0.499
- relative viability (NCI-H441; first compound 0.1 µM): 0.483
- relative viability (NCI-H650; first compound 0.001 µM): 0.406
- relative viability (NCI-H650; first compound 0.003162 µM): 0.526
- relative viability (NCI-H650; first compound 0.01 µM): 0.486
- relative viability (NCI-H650; first compound 0.03162 µM): 0.441
- relative viability (NCI-H650; first compound 0.1 µM): 0.362
- relative viability (NCI-H838; first compound 0.001 µM): 0.427
- relative viability (NCI-H838; first compound 0.003162 µM): 0.381
- relative viability (NCI-H838; first compound 0.01 µM): 0.377
- relative viability (NCI-H838; first compound 0.03162 µM): 0.35
- relative viability (NCI-H838; first compound 0.1 µM): 0.429
- relative viability (SK-LU-1; first compound 0.001 µM): 0.313
- relative viability (SK-LU-1; first compound 0.003162 µM): 0.322
- relative viability (SK-LU-1; first compound 0.01 µM): 0.302
- relative viability (SK-LU-1; first compound 0.03162 µM): 0.258
- relative viability (SK-LU-1; first compound 0.1 µM): 0.265
- relative viability (SW 1573; first compound 0.001 µM): 0.566
- relative viability (SW 1573; first compound 0.003162 µM): 0.751
- relative viability (SW 1573; first compound 0.01 µM): 0.72
- relative viability (SW 1573; first compound 0.03162 µM): 0.276
- relative viability (SW 1573; first compound 0.1 µM): 0.155

From the supplement of paper PMC10307832
